Laboratory results taken from BindingDB's records for doi:10.1021/jm00072a005 (University of Paris, 1993).

What follows are compounds tested against Cholecystokinin receptor type A (Rattus norvegicus) (UniProt P30551) (assay: Tested for binding affinity towards cholecystokinin type A receptor in rat pancreas by displacement of [3H]pCCK-8 radioligand).
`CC(Cc1ccc2ccccc2c1)(NC(=O)OC1[C@H]2C[C@@H]3C[C@@H](C[C@H]1C3)C2)C(=O)N(CCc1ccccc1)CC(=O)O` (stereo partly drawn) [{[2-(Adamantan-2-yloxycarbonylamino)-2-methyl-3-naphthalen-2-yl-propionyl]-phenethyl-amino}-acetic acid] showed a Ki of 3010 nM.

These compounds were tested against Gastrin/cholecystokinin type B receptor (Cavia porcellus) (assay: Tested for inhibition of [3H]pCCK-8 specific binding to cholecystokinin type B receptor in guinea pig brain cortex).
Work on `CC(Cc1c[nH]c2ccccc12)(NC(=O)OC1[C@H]2C[C@@H]3C[C@@H](C[C@H]1C3)C2)C(=O)NCc1ccccc1` (stereo partly drawn) [[1-Benzylcarbamoyl-2-(1H-indol-3-yl)-1-methyl-ethyl]-carbamic acid adamantan-2-yl ester] yielded a Ki of 231 nM. Compound `CC(Cc1c[nH]c2ccccc12)(NC(=O)OC1[C@H]2C[C@@H]3C[C@@H](C[C@H]1C3)C2)C(=O)NCCc1ccc(Cl)cc1Cl` (stereo partly drawn) [[1-[2-(2,4-Dichloro-phenyl)-ethylcarbamoyl]-2-(1H-indol-3-yl)-1-methyl-ethyl]-carbamic acid adamantan-2-yl ester] has a Ki of 27 nM. Compound `CC(Cc1c[nH]c2ccccc12)(NC(=O)OC1[C@H]2C[C@@H]3C[C@@H](C[C@H]1C3)C2)C(=O)NCC(=O)O` (stereo partly drawn) [[2-(Adamantan-2-yloxycarbonylamino)-3-(1H-indol-3-yl)-2-methyl-propionylamino]-acetic acid] has a Ki of 986 nM. With `CC(Cc1cccc2ccccc12)(NC(=O)OC1[C@H]2C[C@@H]3C[C@@H](C[C@H]1C3)C2)C(=O)N(CCc1ccccc1)CC(=O)O` (stereo partly drawn) [{[2-(Adamantan-2-yloxycarbonylamino)-2-methyl-3-naphthalen-1-yl-propionyl]-phenethyl-amino}-acetic acid] the Ki was 134 nM. In the case of `CC(Cc1c[nH]c2ccccc12)(NC(=O)OC1[C@H]2C[C@@H]3C[C@@H](C[C@H]1C3)C2)C(=O)NCCc1ccc(Br)cc1` (stereo partly drawn) [[1-[2-(4-Bromo-phenyl)-ethylcarbamoyl]-2-(1H-indol-3-yl)-1-methyl-ethyl]-carbamic acid adamantan-2-yl ester], the Ki is reported as 51 nM. In the case of `CCOC(=O)CN(CCc1ccccc1)C(=O)C(C)(Cc1c[nH]c2ccccc12)NC(=O)OC1[C@H]2C[C@@H]3C[C@@H](C[C@H]1C3)C2` (stereo partly drawn) [{[2-(Adamantan-2-yloxycarbonylamino)-3-(1H-indol-3-yl)-2-methyl-propionyl]-phenethyl-amino}-acetic acid ethyl ester], the Ki is reported as 543 nM. `CC(Cc1c[nH]c2ccccc12)(NC(=O)OC1[C@H]2C[C@@H]3C[C@@H](C[C@H]1C3)C2)C(=O)Nc1ccc2ccccc2c1` (stereo partly drawn) [[2-(1H-Indol-3-yl)-1-methyl-1-(naphthalen-2-ylcarbamoyl)-ethyl]-carbamic acid adamantan-2-yl ester] showed a Ki of 402 nM. `COc1ccc(CCNC(=O)C(C)(Cc2c[nH]c3ccccc23)NC(=O)OC2[C@H]3C[C@@H]4C[C@@H](C[C@H]2C4)C3)cc1` (stereo partly drawn) [{2-(1H-Indol-3-yl)-1-[2-(4-methoxy-phenyl)-ethylcarbamoyl]-1-methyl-ethyl}-carbamic acid adamantan-2-yl ester] was tested, and the Ki was 115 nM. `CC(Cc1c[nH]c2ccccc12)(NC(=O)OC1[C@H]2C[C@@H]3C[C@@H](C[C@H]1C3)C2)C(=O)NCCc1ccc([N+](=O)[O-])cc1` (stereo partly drawn) [{2-(1H-Indol-3-yl)-1-methyl-1-[2-(4-nitro-phenyl)-ethylcarbamoyl]-ethyl}-carbamic acid adamantan-2-yl ester] gave a Ki of 79 nM. Work on `CC(Cc1c[nH]c2ccccc12)(C(=O)OC1[C@H]2C[C@@H]3C[C@@H](C[C@H]1C3)C2)C(=O)N(CCc1ccc(Cl)cc1Cl)CC(=O)O` (stereo partly drawn) [N-Carboxymethyl-N-[2-(2,4-dichloro-phenyl)-ethyl]-2-(1H-indol-3-ylmethyl)-2-methyl-malonamic acid adamantan-2-yl ester] yielded a Ki of 12 nM. For `CC(Cc1c[nH]c2ccccc12)(NC(=O)OC1[C@H]2C[C@@H]3C[C@@H](C[C@H]1C3)C2)C(=O)N(CCc1ccc(Cl)cc1Cl)CC(=O)O` (stereo partly drawn) [{[2-(Adamantan-2-yloxycarbonylamino)-3-(1H-indol-3-yl)-2-methyl-propionyl]-[2-(2,4-dichloro-phenyl)-ethyl]-amino}-acetic acid], the Ki was 37 nM.

Molecular target: Gastrin/cholecystokinin type B receptor (Cavia porcellus)
Assay: as above
Remark: another data set of the same source
In the case of `CC(Cc1c[nH]c2ccccc12)(NC(=O)OC1[C@H]2C[C@@H]3C[C@@H](C[C@H]1C3)C2)C(=O)NCCc1cccc2ccccc12` (stereo partly drawn) [[2-(1H-Indol-3-yl)-1-methyl-1-(2-naphthalen-1-yl-ethylcarbamoyl)-ethyl]-carbamic acid adamantan-2-yl ester], the Ki is reported as 89 nM.
